Laboratory results: US9643957B2, “Heterocyclic compounds having cholesterol 24-hydroxylase activity” (TAKEDA PHARMACEUTICAL COMPANY LIMITED, priority 2012, dated 2017)

Assays:
[1] = tested on: 24-HC in the brain; experiment: Quantification test of 24-HC in mouse brain after repeated oral administration; type: in vivo; details: 30 mg/kg orally once a day for 3 days, female C57BL/6N mice, brain 24-HC at 16 hours after the third administration, relative to control group, read-out: Decreasing Rate in 30 mg/kg (%)
Protocol: Animals used were 6-week-old female C57BL/6N mice (3 mice/group). A test compound was suspended in a 0.5% aqueous methylcellulose [133-14255 WAKO] solution (1 mg/mL). The body weight of the mice was measured, and the solution was forcibly administered orally and repeatedly once a day for 3 days. At 16 hours after the third administration, half of the brain was harvested, and the amount of 24-HC was measured.
The wet weight of the brain was measured, and the brain was homogenized with 4-fold amount of saline. This solution was used as a brain extract. The 24-HC in the brain extract was extracted with an acetonitrile solution (98% acetonitrile, 1.98% methanol, 0.02% formic acid), and quantified by HPLC. The average value of 24-HC amount was calculated and the results are shown in relative values with the control group as 100%.

[2] = target: T1, human CH24H (Homo sapiens, UniProt Q9Y6A2); experiment: Measurement of CH24H inhibitory activity (24-HC produced from [14C] cholesterol by human CH24H lysate); type: biochemical; details: 1 μM test compound, [14C] cholesterol 15 μM, 37° C. for 5 hr, read-out: Inhibitory Rate in 1 μM (%)
T1 construct: Using Full-Length Mammalian Gene Collection No. 4819975 (Invitrogen) as a template; made in house; host or cells: FreeStyle 293-F cells, transient transfection with pcDNA3.1(+)/hCH24H; lysate supernatant, not purified
T1 sequence (Q9Y6A2 whole entry): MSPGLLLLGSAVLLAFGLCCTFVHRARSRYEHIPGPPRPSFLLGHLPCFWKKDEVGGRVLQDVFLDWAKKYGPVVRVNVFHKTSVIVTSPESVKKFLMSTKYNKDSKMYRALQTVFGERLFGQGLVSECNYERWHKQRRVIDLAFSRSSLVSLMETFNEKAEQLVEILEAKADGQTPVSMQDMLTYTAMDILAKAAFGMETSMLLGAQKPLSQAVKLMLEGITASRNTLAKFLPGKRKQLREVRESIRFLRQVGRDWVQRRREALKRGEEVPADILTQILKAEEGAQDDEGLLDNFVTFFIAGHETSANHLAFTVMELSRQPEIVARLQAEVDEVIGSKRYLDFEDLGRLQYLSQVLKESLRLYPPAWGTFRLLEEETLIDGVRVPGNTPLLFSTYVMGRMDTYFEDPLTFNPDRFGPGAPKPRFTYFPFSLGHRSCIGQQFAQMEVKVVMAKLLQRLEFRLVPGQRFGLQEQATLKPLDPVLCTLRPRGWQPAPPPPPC
Summary of the method: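 Human CH24H lysate from FreeStyle 293 cells was incubated with compound and 15 μM [14C]cholesterol in 50 mM potassium phosphate pH 7.4 with 0.1% BSA, for 5 h at 37 °C. The 24-HC formed was extracted, separated by silica TLC and quantified by radioactivity. % inhibition was calculated versus no-compound reactions.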

| Structure (SMILES) | inhibition in vivo at 30 mg/kg [1] | inhibition at 1 µM [2] |
| --- | --- | --- |
| Cc1nnc(-c2ccncc2N2CCC(C(=O)N3CC(F)(F)C[C@@H]3C#N)CC2)s1 [Example 132, (2R)-4,4-difluoro-1-((1-(4-(5-methyl-1,3,4-thiadiazol-2-yl)pyridin-3-yl)piperidin-4-yl)carbonyl)pyrrolidine-2-carbonitrile] | 65% | 87% |
| COC[C@H]1CCCN1C(=O)C1CCN(c2cnccc2-c2nnc(C)s2)CC1 [Example 133, ((2R)-2-(methoxymethyl)pyrrolidin-1-yl)(1-(4-(5-methyl-1,3,4-thiadiazol-2-yl)pyridin-3-yl)piperidin-4-yl)methanone] | 70% | 87% |
| N#C[C@H]1CCCN1C(=O)C1CCN(c2cnccc2-c2ccccn2)CC1 [Example 142, (2R)-1-((1-(2,4′-bipyridine-3′-yl)piperidin-4-yl)carbonyl)pyrrolidine-2-carbonitrile] | 69% | 93% |
